From patent publication US20040037774A1, “Carrier for carrying radioactive substances and methods for using the same” (priority 2002, published 2004)

Key:
[1] = tested on: human fibroblast cells (normal cells); assay: Affinity test on R-phycoerythrin for normal cells (fluorescent microscopy); assay type: cell-based; settings: 10, 20, 40 μg/ml R-phycoerythrin, 24-hour incubation, FIG. 3B-3D
Method: (§1) R-phycoerythrin is complete dialyzed with 150 mM sodium phosphate buffer, and then serial dilution is carried out by using MEM medium as diluent to obtain the R-phycoerythrin dilutions of concentrations between 1-100 μg/ml.
(§2) The tumor cells are human neuroblastoma cells, and normal cells for comparison are human fibroblast cells. First, cells are maintained in MEM medium (pH 7.4) supplemented with 10% fetal bovine serum, and incubate at 37° C. and 95% humidity. Replace the MEM medium every two days. When carrying out cell subculture, first remove the medium, and rinse the cells once with sodium phosphate buffer. Then add 0.25% trypsin-EDTA to detach the cells from the surface of petri dish, and stop the reaction of trypsin-EDTA by giving proper amount of foregoing MEM medium, and thus the cell suspension is obtained. Secondly, seed 100,000 to 400,000 cells onto cover slips placed in a 12-well culture plate and incubate at 37° C. and 95% humidity for 16 hours.
(§3) Following is the affinity test on R-phycoerythrin for human fibroblast cells (normal cells) and human neuroblastoma cells (tumor cells). Take the 12-well culture plate with cells growing on cover slips mentioned in step 2. Remove the medium and rinse the cells once with sodium phosphate buffer. Add 1 mL of R-phycoerythrin dilutions mentioned in step 1 to the cells and follow with incubation at 37° C. and 95% humidity. […]

[2] = tested on: human neuroblastoma cells (tumor cells); assay: Affinity test on R-phycoerythrin for tumor cells (fluorescent microscopy); assay type: cell-based; settings: 10, 20, 40 μg/ml R-phycoerythrin, 24-hour incubation, FIG. 4B-4D
Method: as §1, §2, §3

R-phycoerythrin
fluorescent signal in cells (accumulation of R-phycoerythrin) [1]: no fluorescent signal is observed | strength of fluorescence signal in cells (accumulation of R-phycoerythrin) [2]: in accordance with the increasing amount of R-phycoerythrin
